According to publication PMC5457276, “Influence of Amphibian Antimicrobial Peptides and Short Lipopeptides on Bacterial Biofilms Formed on Contact Lenses” (Materials, 2016):
Where two headings read alike, the source gives them in different places. Where a SMILES comes first, the peptide text is derived from it. Where no end group is shown, it is not given here. The star is where a group is joined. Palmitoyl = CCCCCCCCCCCCCCCC(=O)*

Assays:
[1] = system: Streptococcus pyogenes PCM 465 biofilm on contact lenses; test: Biofilm assay on contact lenses (MBEC, resazurin); assay type: cell-based; conditions: S. pyogenes, triplicate
Experimental: (§1) All selected strains were obtained from the Polish Collection of Microorganisms (Polish Academy of Science, Wroclaw, Poland). Four Gram-positive and three Gram-negative strains linked with CL-related infections lenses were tested (Table 5). The microorganisms were cultured in a Mueller Hinton Broth II (MHB, Biocorp, Warsaw, Poland) overnight, at 37 °C.
(§2) The CL and CL solutions used are commercially available. One-day CL (1-Day Acuvue Moist) containing Etafilcon A were obtained from Johnson and Johnson Vision Care (Jacksonsville, FL, USA). Four popular CL solutions were also tested (Table 6).
(§3) Biofilms of strains related with ocular infections were cultured on CL placed in polystyrene 24-well plates (Orange Scientific, Braine-l’Alleud, Belgium). Biomaterials were incubated at 37 °C in bacterial suspension in the Mueller Hinton Broth II (Biocorp, Warsaw, Poland) at initial inoculums of ca. 5 × 10^5 CFU/mL. After 24 h of incubation all of the CL were rinsed three times with a sterile phosphate buffer (AppliChem, Darmstadt, Germany). The lenses were then transferred into new wells with fresh MHB II. One-day biofilms were exposed to a pre-determined range of peptides concentration. […] Anti-biofilm activity of selected peptides was visualized using a cell-viability reagent, Resazurin (Sigma Aldrich, St. Louis, MO, USA). Upon contact with living cells the dye is metabolized by bacterial dehydrogenases resulting in the reduction of the blue resazurin to a pink resorufin. Positive controls contained CL immersed in bacterial suspensions without antimicrobials, while CL in a sterile culture medium served as negative controls. The minimum biofilm eradication concentration (MBEC) was read after a one-hour incubation with Resazurin (final concentration per sample = 0.005%) MBEC was determined as the lowest concentration at which the reduction of resazurin was lower or equal (10% ± 0.5%) as compared to positive (100%) and negative (0%) controls. All experiments were performed in triplicate.

[2] = system: Streptococcus pneumoniae ATCC 49619 biofilm on contact lenses; test: Biofilm assay on contact lenses (MBEC, resazurin); assay type: cell-based; conditions: S. pneumoniae, triplicate
Experimental: as §1, §2, §3

[3] = system: Staphylococcus epidermidis ATCC 14990 biofilm on contact lenses; test: Biofilm assay on contact lenses (MBEC, resazurin); assay type: cell-based; conditions: S. epidermidis, triplicate
Experimental: as §1, §2, §3

[4] = system: Staphylococcus aureus ATCC 25923 biofilm on contact lenses; test: Biofilm assay on contact lenses (MBEC, resazurin); assay type: cell-based; conditions: S. aureus, triplicate
Experimental: as §1, §2, §3

[5] = system: Pseudomonas aeruginosa ATCC 9027 biofilm on contact lenses; assay type: cell-based; conditions: for Minimum biofilm eradication concentration (reduction of resazurin ≤10% ± 0.5%): P. aeruginosa, triplicate; for Concentration eliminating P. aeruginosa from the lens surface (MBEC): ATCC 9027, 24 h
Experimental: as §1, §2, §3

[6] = system: Escherichia coli ATCC 25922 biofilm on contact lenses; assay type: cell-based; conditions: for Concentration eradicating E. coli biofilms (MBEC): ATCC 25922, 24 h; for Minimum biofilm eradication concentration (reduction of resazurin ≤10% ± 0.5%): E. coli, triplicate
Experimental: as §1, §2, §3

HaCaT cells = conditions: cited from earlier work
Source text: Our data reveal that AMPs might be promising antibacterial additives to CL solutions. However there are certain limitations and issues which need to be considered. The long-time stability of compounds in a water solution needs to be examined, but first of all the evaluation of toxicity towards human eye cells needs to be carried out. In the previous study tested amphibian peptides turned out to be safe towards HaCaT cells at their microbiologically-active concentrations. […] Considering the potenti ...

[7] = system: biofilms formed by Gram-positive bacteria on contact lenses; test: Biofilm assay on contact lenses (MBEC), summary over Gram-positive strains; assay type: cell-based
Experimental: as §1, §2, §3

[8] = system: Streptococcus pyogenes PCM 465; assay type: cell-based; conditions: S. pyogenes; same MIC in μM (in brackets); broth microdilution, MHB II, overnight at 37 °C, triplicate
Experimental: as §1
(§4) Peptide susceptibility tests on the reference bacterial strains were performed with the following procedures recommended by the Clinical and Laboratory Standard Institute (CLSI). The activity of five peptides was tested on the Mueller Hinton Broth II (Biocorp, Warsaw, Poland) using broth microdilution method on polystyrene 96-well plates (Kartell, Noviglio, Italy). […] The plates were incubated overnight at 37 °C. MIC was assumed as the lowest concentration at which bacterial growth was no longer visible. All experiments were performed in triplicate.

[9] = system: Staphylococcus epidermidis ATCC 14990; assay type: cell-based; conditions: S. epidermidis; same MIC in μM (in brackets); broth microdilution, MHB II, overnight at 37 °C, triplicate
Experimental: as §1, §4

[10] = system: Pseudomonas aeruginosa ATCC 9027; assay type: cell-based; conditions: P. aeruginosa; same MIC in μM (in brackets); broth microdilution, MHB II, overnight at 37 °C, triplicate
Experimental: as §1, §4

[11] = system: Streptococcus pneumoniae ATCC 49619; assay type: cell-based; conditions: S. pneumoniae; same MIC in μM (in brackets); broth microdilution, MHB II, overnight at 37 °C, triplicate
Experimental: as §1, §4

[12] = system: Staphylococcus aureus ATCC 25923; assay type: cell-based; conditions: S. aureus; same MIC in μM (in brackets); broth microdilution, MHB II, overnight at 37 °C, triplicate
Experimental: as §1, §4

[13] = system: Escherichia coli ATCC 25922; assay type: cell-based; conditions: E. coli; same MIC in μM (in brackets); broth microdilution, MHB II, overnight at 37 °C, triplicate
Experimental: as §1, §4

[14] = system: planktonic bacteria, all tested strains; test: Minimum inhibitory concentration, summary over all tested strains; assay type: cell-based; conditions: summary of Table 1
Experimental: as §1, §4

[15] = 25 °C, one-day biofilm on contact lens (Etafilcon A), 24 h exposure in MHB II, resazurin read-out
[16] = 25 °C, same MBEC in μM (in brackets), biofilm on contact lens, 24 h exposure
[17] = 37 °C, one-day biofilm on contact lens (Etafilcon A), 24 h exposure in MHB II, resazurin read-out
[18] = 37 °C, same MBEC in μM (in brackets), biofilm on contact lens, 24 h exposure

Compound | Minimum biofilm eradication concentration (reduction of resazurin ≤10% ± 0.5%) [1, 15] [µg/mL] | Minimum biofilm eradication concentration (reduction of resazurin ≤10% ± 0.5%) [1, 16] | Minimum biofilm eradication concentration (reduction of resazurin ≤10% ± 0.5%) [1, 17] [µg/mL] | Minimum biofilm eradication concentration (reduction of resazurin ≤10% ± 0.5%) [1, 18] | Minimum biofilm eradication concentration (reduction of resazurin ≤10% ± 0.5%) [2, 15] [µg/mL] | Minimum biofilm eradication concentration (reduction of resazurin ≤10% ± 0.5%) [2, 16] | Minimum biofilm eradication concentration (reduction of resazurin ≤10% ± 0.5%) [2, 17] [µg/mL] | Minimum biofilm eradication concentration (reduction of resazurin ≤10% ± 0.5%) [2, 18] | Minimum biofilm eradication concentration (reduction of resazurin ≤10% ± 0.5%) [3, 15] [µg/mL] | Minimum biofilm eradication concentration (reduction of resazurin ≤10% ± 0.5%) [3, 16] | Minimum biofilm eradication concentration (reduction of resazurin ≤10% ± 0.5%) [3, 17] [µg/mL] | Minimum biofilm eradication concentration (reduction of resazurin ≤10% ± 0.5%) [3, 18] | Minimum biofilm eradication concentration (reduction of resazurin ≤10% ± 0.5%) [4, 15] [µg/mL] | Minimum biofilm eradication concentration (reduction of resazurin ≤10% ± 0.5%) [4, 16] | Minimum biofilm eradication concentration (reduction of resazurin ≤10% ± 0.5%) [4, 17] [µg/mL] | Minimum biofilm eradication concentration (reduction of resazurin ≤10% ± 0.5%) [4, 18] | Minimum biofilm eradication concentration (reduction of resazurin ≤10% ± 0.5%) [5, 15] [µg/mL] | Minimum biofilm eradication concentration (reduction of resazurin ≤10% ± 0.5%) [5, 16] | Minimum biofilm eradication concentration (reduction of resazurin ≤10% ± 0.5%) [5, 17] [µg/mL] | Minimum biofilm eradication concentration (reduction of resazurin ≤10% ± 0.5%) [5, 18] | further results
CCCCCCCCCCCCCCCC(=O)N[C@@H](CCCCN)C(=O)N[C@@H](CCCCN)C(N)=O [Palm-KK-NH2] | 32 | (43.3) μM | 512 | (693.0) μM | 64 | (86.6) μM | 64 | (86.6) μM | 32 | (43.3) μM | 32 | (43.3) μM | 32 | (43.3) μM | 64 | (86.6) μM | >512 | (>693.0) μM | >512 | (>693.0) μM | Concentration eradicating E. coli biofilms (MBEC) [6]: 256 µg/mL; Minimum biofilm eradication concentration (reduction of resazurin ≤10% ± 0.5%) [6, 15]: 256 µg/mL; Minimum biofilm eradication concentration (reduction of resazurin ≤10% ± 0.5%) [6, 16]: (346.5) μM; Minimum biofilm eradication concentration (reduction of resazurin ≤10% ± 0.5%) [6, 17]: 256 µg/mL; Minimum biofilm eradication concentration (reduction of resazurin ≤10% ± 0.5%) [6, 18]: (346.5) μM; Toxicity towards HaCaT cells / human keratinocytes (in words) (HaCaT cells): high toxicity; Concentrations eradicating biofilms formed by Gram-positive bacteria (MBEC) ([7]; at 37 °C): 32 to 512 µg/mL; Concentrations eradicating biofilms formed by Gram-positive bacteria (MBEC) ([7]; printed "below 25 °C"): 32 to 64 µg/mL; Minimum inhibitory concentration [8]: (21.7) μM; Minimum inhibitory concentration [9]: (5.4) μM; Minimum inhibitory concentration [10]: (21.7) μM; Minimum inhibitory concentration [11]: (10.8) μM; Minimum inhibitory concentration [12]: (10.8) μM; Minimum inhibitory concentration [13]: (10.8) μM
CCCCCCCCCCCCCCCC(=O)N[C@@H](CCCNC(=N)N)C(=O)N[C@@H](CCCNC(=N)N)C(N)=O [Palm-RR-NH2] (Palmitoyl-Arg-Arg-NH2) | 128 | (161.0) μM | >512 | (>644.1) μM | 64 | (80.5) μM | 32 | (40.3) μM | 64 | (80.5) μM | 32 | (40.3) μM | 128 | (161.0) μM | 256 | (322.1) μM | >512 | (>644.1) μM | >512 | (>644.1) μM | Minimum biofilm eradication concentration (reduction of resazurin ≤10% ± 0.5%) [6, 15]: 256 µg/mL; Minimum biofilm eradication concentration (reduction of resazurin ≤10% ± 0.5%) [6, 16]: (322.1) μM; Minimum biofilm eradication concentration (reduction of resazurin ≤10% ± 0.5%) [6, 17]: 512 µg/mL; Minimum biofilm eradication concentration (reduction of resazurin ≤10% ± 0.5%) [6, 18]: (644.1) μM; Minimum inhibitory concentration [8]: (20.1) μM; Minimum inhibitory concentration [9]: (5.0) μM; Minimum inhibitory concentration [10]: (40.3) μM; Minimum inhibitory concentration [11]: (5.0) μM; Minimum inhibitory concentration [12]: (10.1) μM; Minimum inhibitory concentration [13]: (20.1) μM
FLPLIGRVLSGIL-NH2 [Temporin A, reference compound] | – | – | – | – | – | – | – | – | – | – | – | – | – | – | – | – | – | – | – | – | Concentration eliminating P. aeruginosa from the lens surface (MBEC) [5]: 512 µg/mL
GIGKFLKKAKKFGKAFVKILKK-NH2 [Pexiganan] | – | – | – | – | – | – | – | – | – | – | – | – | – | – | – | – | – | – | – | – | Concentrations inhibiting bacterial growth (MIC), range over all tested strains [14]: 1 to 8 µg/mL
GLFDVIKKVASVIGGL-NH2 [Citropin 1.1, reference compound] | – | – | – | – | – | – | – | – | – | – | – | – | – | – | – | – | – | – | – | – | Concentration eliminating P. aeruginosa from the lens surface (MBEC) [5]: 512 µg/mL; Concentration eradicating E. coli biofilms (MBEC) [6]: 128 to 256 µg/mL; MBEC values, range over Gram-positive strains ([7]; both temperatures (25 °C and 37 °C)): 16 to 64 µg/mL
